Experiments:
PRRSV = PRRSV replication in infected Marc-145 cells treated with glycolysis inhibitors (Western blotting, TCID50, RT-PCR); assay type: cell-based, porcine reproductive and respiratory syndrome virus; settings: for virus titer (TCID50) in cell culture medium / PRRSV ORF7 mRNA level in the cells (RT-PCR): 36 h, 2-DG 0-15 μM; for virus titer (TCID50) in cell culture medium / PRRSV ORF7 mRNA level in the cells (RT-PCR) / PRRSV N protein expression level (Western blotting): SO 0, 25, 50 mM; for PRRSV ORF7 mRNA level in the cells (RT-PCR) / PRRSV N protein expression level (Western blotting): Gal 10, 50, 100 μM; for PRRSV N protein expression level (Western blotting): 36 h after infection
Description: Highly pathogenic PRRSV strains BB0907 and Marc-145 cells are maintained in the laboratory and are conventional strains and cells disclosed in the prior art.
Marc-145 cells were cultured in a 96-well plate. When the cell confluence reached 70%, a nutrient solution was pipetted, and the cell surface was washed 3 times with PBS. Ten-fold serial dilutions of PRRSV were added to the cells and incubated at 37° C. for 1 h. A medium was replaced with fresh 2% FBS-DMEM. Virus titers were determined 5 days post inoculation (dpi) by endpoint dilution assay. 50% tissue culture infectious dose (TCID50) was calculated by a Reed-Muench method.
Cellular RNA was extracted following operating instructions of an OMEGA RNA virus extraction kit. After reverse transcription into cDNA, […].
By a 2-ΔΔCt method, the relative content of mRNA in each gene in the samples was calculated by a CT value.
(§1) To explore the effect of glycolysis in cells on PRRSV replication, an inhibitor of glycolytic pathway, 2-DG, was used to inhibit glycolysis in cells. […] After the Marc-145 cells were infected with PRRSV (0.01 MOI), the Marc-145 cells were treated with 0 μM, 2.5 μM, 5 μM, 10 μM and 15 μM of 2-DG respectively. After 36 hours, the inhibition efficiency of the 2-DG on PRRSV on the Marc-145 cells was detected by Western blotting.
To further verify the effect of glycolysis on PRRSV, PRRSV-infected Marc-145 cells were treated with a key enzyme in the last step of glycolysis, that is, an inhibitor of lactate dehydrogenase, sodium oxamate (SO). A control group was set up to detect whether there was a difference in the level of virus replication. […] After the Marc-145 cells were infected with PRRSV (0.01 MOI), the Marc-145 cells were treated with 0 mM, 25 mM and 50 mM of SO. 36 h after infection, the PRRSV N protein expression level, virus titer and PRRSV ORF7 mRNA level were detected by Western blotting, TCID50 and RT-PCR respectively.
PRRSV-infected Marc-145 cells were treated with an inhibitor of lactate dehydrogenase (Galloflavin, Gal), and a control group was set up to detect differences in viral replication levels. […] After Marc-145 cells were infected with PRRSV (0.01 MOI), the Marc-145 cells were treated with 10 μM, 50 μM and 100 μM of Gal. […] In addition, A PRRSV ORF7 mRNA level and the virus titer were detected by TCID50 and RT-PCR.

PRRSV BB0907 strain = test: Treatment of PRRSV-infected piglets by oral administration; assay type: in vivo; settings: for microscopic lung lesion scores: day 14, compared with challenge control group, P<0.01; for gross lung lesion scores: day 14, compared with positive control group, sodium oxamate P<0.01, Galloflavin P<0.001; for PRRSV viral load in the lungs / histopathological changes of lungs / gross lung lesions (observation) / clinical symptoms (observation) / clinical symptoms compared with the positive control group / weight growth rate / virus content in the serum (PRRSV genome copy number, qRT-PCR): oral daily, sodium oxamate 7 mg or Galloflavin 10 μg; for PRRSV viral load in the lungs: 14 dpi, P<0.0001; for histopathological changes of lungs: day 14; for gross lung lesions (observation): day 14, compared with the positive control group; for clinical symptoms (observation): days 0-14; for clinical symptoms compared with the positive control group: days 0-14, P<0.001; for weight growth rate: days 0-14, P>0.05 vs negative control; for virus content in the serum (PRRSV genome copy number, qRT-PCR): serum at 1, 4, 7, 10, 14 dpi
Marc-145 cells = assay type: cell-based; settings: monkey, 48 h
Description: Marc-145 cells were cultured in 10% FBS-DMEM containing different concentrations of sodium oxamate (1-250 mM), Galloflavin (0-2.5 mM) and 2-deoxy-D-glucose (0-20 μM), and incubated at 37° C. for 48 h. Cell viability was detected with an enhanced CCK8 kit. DMSO was used as a negative control.
as §1
To further verify the effect of glycolysis on PRRSV, PRRSV-infected Marc-145 cells were treated with a key enzyme in the last step of glycolysis, that is, an inhibitor of lactate dehydrogenase, sodium oxamate (SO). […] 36 h after infection, the PRRSV N protein expression level, virus titer and PRRSV ORF7 mRNA level were detected by Western blotting, TCID50 and RT-PCR respectively.
PRRSV-infected Marc-145 cells were treated with an inhibitor of lactate dehydrogenase (Galloflavin, Gal), and a control group was set up to detect differences in viral replication levels. […] In addition, A PRRSV ORF7 mRNA level and the virus titer were detected by TCID50 and RT-PCR.

| SMILES | level of PRRSV replication (figure legend) (PRRSV) | virus titer (TCID50) in cell culture medium (PRRSV; PRRSV 0.01 MOI) | PRRSV ORF7 mRNA level in the cells (RT-PCR) (PRRSV; PRRSV 0.01 MOI) | inhibition at 5 µM (PRRSV; Porcine reproductive and respiratory syndrome virus, MARC145, concentration of 5 μM, PRRSV 0.01 MOI, after 36 hours, read-out: inhibition efficiency against PRRSV (Western blotting)) | PRRSV N protein expression level (Western blotting) (PRRSV; PRRSV 0.01 MOI) | microscopic lung lesion scores (PRRSV BB0907 strain) | gross lung lesion scores (PRRSV BB0907 strain) | PRRSV viral load in the lungs (PRRSV BB0907 strain) | histopathological changes of lungs (PRRSV BB0907 strain) | gross lung lesions (observation) (PRRSV BB0907 strain) | clinical symptoms (observation) (PRRSV BB0907 strain) | clinical symptoms compared with the positive control group (PRRSV BB0907 strain) | weight growth rate (PRRSV BB0907 strain) | virus content in the serum (PRRSV genome copy number, qRT-PCR) (PRRSV BB0907 strain) | concentration at which the substance starts to be toxic to the cells (CCK8) (Marc-145 cells) |
| --- | --- | --- | --- | --- | --- | --- | --- | --- | --- | --- | --- | --- | --- | --- | --- |
| O=CC[C@@H](O)[C@H](O)[C@H](O)CO [2-DG, 2-deoxy-D-glucose] | reduces the level of PRRSV replication | decreased in a dose-dependent manner | decreased in a dose-dependent manner | ~50% | – | – | – | – | – | – | – | – | – | – | – |
| NC(=O)C(=O)[O-].[Na+] [sodium oxamate] | reduces the level of PRRSV replication | reduce PRRSV replication in the cells in a dose-dependent manner | reduce PRRSV replication in the cells in a dose-dependent manner | – | reduce PRRSV replication in the cells in a dose-dependent manner | significantly lower than those of the challenge control group | significantly lower | significantly lower than that in the positive control group | mild thickened alveolar septa and inflammatory cell infiltration | significantly minor lung lesions | no obvious clinical symptoms | significantly relieved clinical symptoms | approximate to that of the negative control group | significantly lower than that in the positive control group | 100000 µM |
| O=c1oc2c(cc1O)oc(=O)c1cc(O)c(O)c(O)c12 [Galloflavin] | reduces the level of PRRSV replication | – | decrease the mRNA level of PRRSV in a dose-dependent manner | – | decrease PRRSV replication in the cells in a dose-dependent manner | significantly lower than those of the challenge control group | more significantly lower | significantly lower than that in the positive control group | significantly alleviated, similar to those in the negative control group | significantly minor lung lesions | no obvious clinical symptoms | significantly relieved clinical symptoms | approximate to that of the negative control group | significantly lower than that in the positive control group | – |
